Laboratory results taken from patent US20230250478A1, “DIAGNOSIS AND TREATMENT OF CHRONIC DIABETIC COMPLICATIONS USING LONG NONCODING RNAS AS TARGETS” (THE UNIVERSITY OF WESTERN ONTARIO, priority 2020, published 2023).

What was measured:
Assay type in all cases: cell-based, human
HOTAIR = experiment: siRNA-mediated knockdown of HOTAIR in HRECs, RT-qPCR; conditions: for reduction of HOTAIR RNA levels: HG-cultured HRECs, 48 hours, compared to SCR HG controls; for transcript levels of VEGF-A, ET-1 and ANGPTL4: custom double-stranded siRNAs, HRECs, HG
Procedure: Human retinal microvascular endothelial cells (HRECs; Cell Systems, Kirkland, Wash., USA; catalog number ACBRI 181), mouse retinal microvascular endothelial cells (MRECs; Applied Biological Materials Inc., Richmond, BC, CAN), and primary lung endothelial cells (MLECs) from C57BL/6J mice were cultured in endothelial basal media-2 (EBM-2, Lonza, Walkersville, Md., USA) containing endothelial growth media-2 (EGM-2) SingleQuots (Lonza). All cells were grown in 75 cm^2 culture flasks and maintained in a humidified incubator containing 5% CO2 at 37° C. As described previously (22,55,56), in order to reduce variability for experimentation, cells were used between passages three and six and the cellular densities were determined accordingly based on the type of culture plates used for each experiment. Generally, once 80% confluence was obtained post-seeding, ECs were cultured in serum and growth factor-free medium overnight before exposure to different D-glucose levels (final glucose concentrations of 5 mmol/L, mimicking normoglycemia [NG], and 25 mmol/L, mimicking hyperglycemia [HG]) for various durations; the selected glucose levels are based on a large volume of previous experiments (22,27,33,55-57). All in vitro or ex vivo experiments were independently repeated at least three times and performed with six replicates, unless specified.
HRECs were transfected using scrambled siRNAs (ID number: AM4635 [SCR], Thermo Fisher Scientific) or pre-designed siRNAs targeting human HOTAIR (ID: n272221 [si1-HOTAIR], Thermo Fisher Scientific; n272222 [si2-HOTAIR], Thermo Fisher Scientific; R-187951-00-0005 [SMARTpool siHOTAIR], Horizon Discovery; Table 6, top panel), EZH2 (ID: M-004218-03-0005 [SMARTpool si-EZH2], Horizon Discovery), CTCF (ID: M-020165-02-0005 [SMARTpool siCTCF], Horizon Discovery), DNMT1 (ID: s4216 [siDNMT1], Thermo Fisher Scientific) or mouse Hotair (ID: R-173526-00-0005 [SMARTpool siHOTAIR], Horizon Discovery, Table 6, bottom panel) using Lipofectamine 2000 (Invitrogen, Burlington, ON, Canada) and Opti-MEM reduced serum media (Thermo Fisher Scientific). As documented previously by us (22,27,33,55-57), cells were transfected with 100 nM of each siRNA for 3-4 hours and subsequently recovered in complete EBM-2 overnight. Cells were then serum starved the following morning, between 18-24 hours, and then incubated with specific glucose concentrations (5 mmol/L or 25 mmol/L) for 48 hours. Knockdown of the target genes were then confirmed using RT-qPCR.
(§1) As extensively described by us (22,27,33,55-57), total RNA was extracted using the TRIzol reagent (Invitrogen). Once total RNA was obtained, a spectrophotometer (260 nm; Gene Quant, Pharmacia Biotech, USA) was used to quantify RNA concentrations in which 1-2 μg of total RNA was reverse transcribed to complementary DNA (cDNA) using a high-capacity cDNA reverse-transcription kit (Applied Biosystems/Thermo Fisher Scientific). cDNA was then amplified in the LightCycler 96 System (Roche Diagnostics, Laval, QC, CAN) using the SYBR-green master mix (Takara Bio, Mountain View, Calif., USA) and specific primers for the genes of interest (Sigma; Tables 1-2). RT-qPCR results were analyzed using the LightCycler 96 SW 1.1 software (Roche) and expression levels were calculated by the relative standard curve method using β-actin as an internal control for sample normalization.

HRECs [1] = experiment: DZNep pre-treatment of HRECs, RT-qPCR
Procedure: (§2) Following the concentrations documented in previous studies, DZNep (Cayman Chemical, Ann Arbor, Mich., USA; 5 μM), 5-aza-dC (Sigma, St. Louis, USA; 5 μM) or 2-DG (Sigma; 0.6 mM and 5 mM) pre-treatment was applied to HRECs for 1 hour prior to the addition of D-glucose (22,27,55,58). DZNep, 5-aza-dC or 2-DG-treated HRECs and their respective controls were collected at 48 hours for further analyses.
as §1

HRECs [2] = experiment: 2-DG pre-treatment of HRECs, RT-qPCR
Procedure: as §2, §1

HRECs [3] = experiment: Trypan blue exclusion assay; conditions: 2-DG-treated HRECs, data not shown
HRECs [4] = experiment: 5-aza-dC pre-treatment of HRECs, RT-qPCR
Procedure: as §2, §1

[5] = DZNep 5 μM plus HG, 48 hours, compared to SCR HG cells
[6] = 5-aza-dC 5 μM, HRECs, compared to HG controls

## siHOTAIR SB1: custom 21-nt duplex siRNA; sense CCAAAGAGUCUGAUGUUUACA, antisense UAAACAUCAGACUCUUUGGGG; HOTAIR target position 457-479 (RNA, backbone not given here) [custom 21-nt duplex siRNA; HOTAIR target position 457-479]
HOTAIR
  reduction of HOTAIR RNA levels: ~67%
  transcript levels of VEGF-A, ET-1 and ANGPTL4: greatest reductions

## Nc1nccc2c1ncn2[C@@H]1C=C(CO)[C@@H](O)[C@H]1O [DZNep, 3-Deazaneplanocin A]
HRECs [1]; DZNep 5 μM and HG, compared to SCR HG controls
  HOTAIR, VEGF-A, ANGPTL4, CTCF, PARP1, P300 and Cytochrome B transcripts: statistically significant reductions
HRECs [1]; [5]
  reduction of EED transcripts: ~61%
  reduction of EZH2 transcripts: ~72%
  reduction of SUZ12 transcripts: ~48%
HRECs [1]; DZNep 5 μM pre-treatment plus HG culture
  ET-1, MCP-1, IL-1β, HOXD3 and HOXD10 transcripts: significantly augmented
HRECs [1]; summary statement in Example 3
  HOTAIR expressions and its downstream targets: can reduce

## O=CC[C@@H](O)[C@H](O)[C@H](O)CO [2-DG, 2-deoxy-D-glucose]
HRECs [2]; 5 mM 2-DG, HRECs cultured with HG, compared to HG controls
  HOXD3 and HOXD10 expressions: significantly upregulated
HRECs [2]; 5 mM 2-DG, HRECs, HG
  PARP1 and P300 expressions: did not induce significant reductions
HRECs [2]; 5 mM of 2-DG, HRECs, HG
  expressions of DNMT3A and DNMT3B: no differences were observed
  expressions of EZH2, SUZ12, EED and DNMT1: significant reductions
HRECs [2]; 2-DG 0.6 or 5 mM, HRECs, HG 48 hours
  HG-induced expressions of HOTAIR, VEGF-A, ET-1, ANGPTL4, MCP-1, IL-1β, CTCF and Cytochrome B: significantly blocked
HRECs [3]
  viability: 45-55%

## Nc1ncn([C@H]2C[C@H](O)[C@@H](CO)O2)c(=O)n1 [5-aza-dC, 5-Aza-2′-deoxycytidine]
HRECs [4]; [6]
  reduction of DNMT3A RNA levels: ~58%
  reduction of DNMT3B RNA levels: ~69%
HRECs [4]; 5-aza-dC-treated HRECs, HG
  ANGPTL4, P300 and PARP1 expressions: no significant differences
  HOTAIR, ET-1, CTCF, Cytochrome B, MCP-1, IL-1β, HOXD3 and HOXD10 transcripts: significant elevations
  glucose-induced increases in VEGF-A RNA expressions: significantly prevented
HRECs [4]; summary statement in Example 3
  HOTAIR expressions and its downstream targets: can reduce

## siHOTAIR SB4: custom 21-nt duplex siRNA; sense GUGUAUAUAUAAUAAUGUAUU, antisense UACAUUAUUAUAUAUACACAA; HOTAIR target position 2160-2182 (RNA, backbone not given here) [custom 21-nt duplex siRNA; HOTAIR target position 2160-2182]
HOTAIR
  reduction of HOTAIR RNA levels: ~32%

## siHOTAIR SB3: custom 21-nt duplex siRNA; sense CUCUAUAAUAUGCUUAUAUUA, antisense AUAUAAGCAUAUUAUAGAGUU; HOTAIR target position 1700-1722 (RNA, backbone not given here) [custom 21-nt duplex siRNA; HOTAIR target position 1700-1722]
HOTAIR
  reduction of HOTAIR RNA levels: ~57%

## siHOTAIR SB2: custom 21-nt duplex siRNA; sense CAUAAACAAUAUAUCUGUUGG, antisense AACAGAUAUAUUGUUUAUGAG; HOTAIR target position 1156-1178 (RNA, backbone not given here) [custom 21-nt duplex siRNA; HOTAIR target position 1156-1178]
HOTAIR
  reduction of HOTAIR RNA levels: ~41%
  transcript levels of VEGF-A, ET-1 and ANGPTL4: greatest reductions
